The text below walks through data of patent US20200362303A1, “MAINTENANCE-AND-AMPLIFICATION METHOD AND DIFFERENTIATION INDUCTION METHOD FOR PRIMORDIAL GERM CELLS/PRIMORDIAL GERM CELL-LIKE CELLS” (KYOTO UNIVERSITY, priority 2017, published 2020).

Assay [1] concerns PGCLC induced from BVSCDT ESC(XY). The assay can be described thus: Screening for factors inducing female germ cell fate: DT and BV expression by FACS at c7. In kind it is cell-based, mouse. The following applies: added from c3, read at c7; RA 100 nM, cytokines 500 ng/ml; BMPs in combination with RA. On the procedure:
(§1) The PGC/PGCLC expansion medium was constituted of 10% KSR, 2.5% FBS, 0.1 mM NEAA, 1 mM sodium pyruvate, 2 mM L-glutamine, 0.1 mM 2-mercaptoethanol, 100 U/ml penicillin, 0.1 mg/ml […] streptomycin, […] forskolin, and 10 μM rolipram. The entire medium was changed every 2 days from c3. Cytokines/compounds for induction of female fate were provided from c3 to the end of culture. RA and BMP concentrations used were 100 nM and 300 ng/ml, respectively, unless otherwise specified. Brightfield and fluorescence images were captured using an IX73 inverted microscope (Olympus).
(§2) The preparation of d4/c0 PGCLC for FACS is described in “ESC culture/induction and PGCLC induction/culture”. To isolate germ cells in vivo, fetal gonads of BVSC, VR or SG mice were cut and processed for FACS according to the procedure described for d4/c0 PGCLC. Culture PGCLC was also prepared by the same method except that, after dissociation, the cells were washed with 0.1% BSA-DMEM containing 100 μg/ml DNase (Sigma-Aldrich), lysed DNA from dead cells was digested to prevent the formation of cell/debris clumps. Fluorescent activity of BV/SG, SC, or DT/VR was detected with FITC, Horizon V500 or PE-Texas Red channels, respectively. FACS data was analyzed using FlowJo or FACS Diva software package.
In the signal inhibitory experiment, LDN193189 (#04-0074; Stemgent) and BMS493 (B6688; Sigma-Aldrich) dissolved in DMSO were used as ALK2/3 inhibitor and RAR inhibitor, respectively.
(In general: Flow cytometry measures light scatter and fluorescence of single cells or particles in a stream.)

Assay [2] has as its system PGCLCs induced from BVSCVR ESC (XX). The assay can be described thus: BVSC and VR expression by FACS in cultured PGCLC. The following applies: added at c3, read at c9; varying concentrations. Type of assay: cell-based, mouse. The method, then:
as §1, §2

The test system of assay [3] is cultured PGCLC. The assay is described as follows: Immunofluorescence analysis of STRA8, SCP3, DDX4 in cultured PGCLC. In kind it is cell-based, mouse. On the procedure:
as §1
(§3) Immunofluorescence (IF) analysis was performed as described previously (Hayashi et al, 2012). The following primary antibodies were used: chicken anti-GFP (ab13970; Abeam), rabbit anti-DDX4 (ab13840; Abeam), mouse anti-DDX4 (ab27591; Abeam), rabbit anti-DAZL (ab34129; Abeam), goat anti-DAZL (sc-27333; Santa Cruz), rabbit anti-STRA8 (ab49602; Abeam), mouse anti-SYCP3 (ab97672; Abeam) and rabbit anti-TEX14 (ab41733; Abeam)IgG. The following secondary antibodies were used: Alexa Fluor 488-goat anti-mouse or chicken IgG; Alexa Fluor 568-goat anti-rabbit IgG and Alexa Fluor 633-goat anti-mouse, anti-chicken IgG; Alexa Fluor 488-donkey anti-mouse IgG; Alexa Fluor 568-donkey anti-rabbit IgG and Alexa Fluor 633-donkey anti-goat IgG. IF images were acquired using a confocal microscope [FV1000 (Olympus) or LSM780 (Zeiss)].

Assay [4] relates to BV/SC(+) cells. The assay is described as follows: Cell cycle analysis by EdU and 7AAD uptake in PGCLC culture. Type of assay: cell-based, mouse. The note with it: RA alone; c9. On the procedure: Cell cycle analysis was performed using the Click-iT EdU Flow Cytometry Assay Kit (C10424; Thermo Fischer Scientific) according to the manufacturer's instructions. Cultured PGCLC was treated with 10 μg/ml EdU for 30 min to 2 hr and analyzed by FACS.

Assay [5] has as its system PGC at E11.5. The assay can be described thus: Ex vivo culture of E11.5 PGC, SCP3/DDX4/SG expression at c4. The following applies: cultured 4 days; RA alone. In kind it is cell-based, mouse. On the procedure: as §3
Assay [6] deals with BV (+) d4 PGCLCs. The assay is described as follows: Compound library screening for PGCLC proliferation (BV fluorescence by cell analyzer). Type of assay: cell-based, mouse. The note with it: three CsA entries in the screening data, two exceeded; 10 μM and 1 μM. The method, then: d4 PGCLC was seeded by FACS on m220-5 feeders in 96-well plates and BV fluorescence was monitored by cell analyzer (Cellavista; SynenTec). Fluorescence photograph for BV was taken by Cellavista cell analyzer with the following settings: 10× objectives; exposure time: 140 μsec; gain: 4×; binning: 4×4; excitation: 500/24 nm; emission: 542/27 nm. BV fluorescence was detected using the following algorithm/attribute parameters: sensitivity: 10; region merging: 200; min. granule intensity: 50; well edge distance: 200; contrast: 1; size: 3,000; intensity: 255; roughness: 500; granularity: 100; granule intensity: 255; granule count: 10,000; longishness: 100; compactness: 1. The value of “cell nucleus” was used for the detection of BV fluorescence.
The compound library was screened at concentrations of 10 μM and 1 μM. […] 200 BV (+) d4 PGCLCs induced from BDF1-2 ESC were seeded in the wells of a 96-well plate, and BV fluorescence was measured on the Cellavista cell analyzer on day 1 of culture (c1), c3, c5 and c7. The value of “cell nucleus” was used for the detection of BV fluorescence. […] For each compound, the fold difference in BV fluorescence between c1 and c7 was calculated for each compound and compounds with a fold difference value exceeding 3SD of the mean of the negative control were identified as those that potentiate PGCLC proliferation.

The test system of assay [7] is d4 PGCLC. The assay is described as follows: Expansion culture of d4 PGCLC on m220-5 feeder (cell number fold increase). In kind it is cell-based, mouse. The method, then:
(§4) Since the m220-5 feeder treated with MMC was vulnerable to forskolin and rolipram, m220-5 cells were subcultured 3 times with both forskolin and rolipram each at 10 μM and adapted to these compounds before MMC treatment (1-2 μg/ml for 2 hr). d4 PGCLC or E9.5 PGC(BDF1×Stella-EGFP) was selected by FACS, and the cells were seeded on m220-5 cells in GMEM medium containing 10% KSR, 0.1 mM NEAA, 1 mM sodium pyruvate, 0.1 mM 2-mercaptoethanol, 100 U/ml penicillin, 0.1 mg/ml streptomycin, 2 mM L-glutamine, 2.5% FCS, 100 ng/ml SCF, 10 μM forskolin, and 10 μM rolipram. Half of the culture medium was changed every 2 days.
(§5) Expansion culture of PGC/PGCLC to investigate the combined effect of cyclosporin A (CsA) was performed as in Example [I], except that 5 μM CsA was added to the medium in addition to 10 μM forskolin and 10 μM loripram (FR10).

The subject of assay [8] is E9.5 PGC. The assay is described as follows: Expansion culture of E9.5 PGC on m220-5 feeder. Type of assay: cell-based, mouse. The following applies: CsA in addition to forskolin and PDE4 inhibitor (FR10). On the procedure:
as §4, §5

Assay [9] relates to cultured PGCLC. The assay is described as follows: Cell cycle analysis of cultured PGCLC (BrdU/EdU, FACS). The note with it: FR10+CsA compared to FR10 alone. Type of assay: cell-based, mouse. The method, then:
The cell cycle status of ESC, EpiLC, d4, d4c3, d4c5 and d4c7 PGCLC(BDF1-2) at E13.5, E14.5 and E15.5 and male germ cells was examined in the same manner as in a previous report (Kagiwada et al, 2013). To label the cultured cells, the cells were incubated with BrdU (10 μM) for 30 min. To label gem cells, female mice (ICR) were mated with Stella-EGFP males and pregnant females were intraperitoneally injected with 1 mg BrdU and embryos were harvested 30 min later. Cultured cells or male gonads were dispersed in single cells by TrypLE treatment. To detect BrdU uptake, the APC-BrdU Flow Kit (BD Biosciences) was used according to the manufacturer's instructions. The stained samples were analyzed using BD FACSAriaIII (BD) with FACS Diva (BD) software, and PGCLC or male gem cells were respectively identified by BV or Stella-EGFP fluorescence. Three biological replicates were analyzed for each sample.
The analysis was performed as in Example [I] except that EdU (10 μM) was used in place of BrdU, and Click-iT™ Plus EdU Alexa Fluor™ 647 Flow Cytometry Assay Kit (Thermo Fisher Scientific) was used for detection of EdU uptake.

The subject of assay [10] is PGCLC. The assay is described as follows: CsA or FK506 alone at various concentrations on PGCLC proliferation (fold difference d7/d1). In kind it is cell-based, mouse. The following applies: 10, 5, 1, 0 μM tested, without FR10.
Assay [11] deals with d4c7 PGCLC. The assay can be described thus: Detection of apoptotic cells (Annexin V). In kind it is cell-based, mouse. The following applies: FR10+CsA compared to FR10 alone. The method, then: d4c7 PGCLC cultured in FR10 or FR10+CsA was dispersed in single cells by TrypLE treatment, and stained using Annexin V Apoptosis Detection Kit APC (eBioscience) according to the manufacturer's instructions. The stained samples were analyzed using BD FACSAriaIII (BD) with FACSDiva (BD) software, and PGCLC was identified by BV fluorescence. Three biological replicates were analyzed for each sample.

For assay [12], the system named is testes of neonatal W/Wv mice. The assay is described as follows: Transplantation of amplified PGCLC into testes of neonatal W/Wv mice (spermatogenesis, offspring). In kind it is in vivo, mouse. The note with it: d4c7 PGCLC; neonatal W/Wv recipients. The method, then:
After purification of PGCLC by FACS, 1×10^4-1×10^5 cells per testis were injected into the testes of randomly selected neonatal (7 days old) or adult W/W^v mouse, as previously reported (Chuma et al, 2005). Where necessary, anti-mouse CD4 antibody ([…] per dose, clone GK1.5; Biolegend) was injected intraperitoneally on day 0, 2 or 4 for immunosuppression (Kanatsu-Shinohara et al, 2003). To assess pregnancy, recipients at 10 weeks post-transplant were mated with BDF1 females. The genotype of BVSC transgene progeny was determined as previously reported (Ohinata et al, 2008). For HE staining, testis or epididymis was fixed with Bouin's solution and embedded in paraffin, and sections were produced.
Spermatozoons were collected from the cauda epididymis and pre-incubated in HTF medium (Kyudo Co., Ltd.) for 1 hr at 37° C. Eggs were collected from BDF1 females that were superovulated by injecting PMSG and hCG and fertilized with sperm in HTF medium. The obtained 2-cell embryos were transferred to the fallopian tube of pseudopregnant ICR females 0.5 days after pregnancy (dpc). Pups were delivered by cesarean section at 18.5 dpc.
Spermatozoons were collected from the mouse testis that received transplantation of PGCLC by the method described in Example [I], and directly injected with a micromanipulator into the ovum collected from BDF1 females that were superovulated by injecting PMSG and hCG. […]

Bounds are passed on as bounds.

For `CC1=C(/C=C/C(C)=C/C=C/C(C)=C/C(=O)O)C(C)(C)CCC1` [RA, all trans retinoic acid], the “DT and BV expression in BV (+) cells” value in assay [1] was “increased DT levels”. In assay [2], the “BVSC and VR expression” value is recorded as “did not activate VR”. In addition, in [3] (RA alone), the “BV/SC(+) cells expressing STRA8” value is reported as roughly 77.7%. For the same molecule, in assay [3] (cultured PGCLC, c9, BMP4, 5, 7 combined with RA, BMS493 with BMP2, LDN193189 with RA and BMP2), the “induction of VR/DDX4 and SCP3 (+) cells (meiotic entry)” value is “did not activate VR/DDX4 or SCP3”. In addition, the “entry into meiosis by cell cycle profile” value in [4] is “did not go into meiosis even in c9”. In addition, the “induction of SCP3” value in assay [5] is given as “Neither control culture nor culture with RA alone induced SCP3”.

Consider “cyclo{-[(2S,3R,4R,6E)-3-hydroxy-4-methyl-2-methylaminooct-6-enoyl]-L-2-aminobutanoyl-N-methylglycyl-N-methyl-L-leucyl-L-valyl-N-methyl-L-leucyl-L-alanyl-D-alanyl-N-methyl-L-leucyl-N-methyl-L-leucyl-N-methyl-L-valyl-} [CsA]”, for which the “fold difference (d7/d1) of BV signal in compound library screening” value in assay [6] was greater than 3 SD. Further, in assay [7] (5 μM CsA in addition to forskolin and PDE4 inhibitor (FR10)), the “proliferation of PGCLC on average with CsA added” value was “about 50 fold”. Besides, the “colony morphology and BVSC expression of expanded cells” value in [7] (expansion culture on m220 feeder) was “formed flat colonies and strongly expressed BVSCs”. In addition, the “proliferation of E9.5 PGC with CsA added” value in assay [8] is given as “about 16 fold”. Further, the “percentage of S-stage cells” value in assay [9] was “increased percentage of S-stage”. In [10], the “most optimal concentration for growing PGCLCs” value came out at 5 µM. Moreover, the “percentage of apoptotic cells” value in assay [11] was “decreased percentage of apoptotic cells”. The “function of amplified PGCLC after transplantation into testes” value in assay [12] is “capable of differentiating into functional spermatozoa”.
